What was measured:
Type in all cases: in vivo, mouse
[1] = system: total matrix metalloproteinase (MMP-2+MMP-9); assay: Total MMP mRNA (MMP-2+MMP-9) calculated from qRT-PCR; conditions: Example 1; TAC vs sham within treated groups; three days after surgery
Protocol: (§1) 11 to 13 week old male C57BL/6 mice were purchased from Charles River (Germany). Mice were housed in individually ventilated pathogen-free cages with free access to water and standard rodent chow. The animals were handled according to the principles of laboratory animal care (NIH publication No. 85-23, revised 1996), and animal procedures were approved by the local committee for animal care.
(§2) The first injection was performed 5 min prior to TAC or sham-operation procedure (described below) and repeated 4, 8, 12, 24, 36, 48 and 60 hrs after surgery. […]
(§3) Quantitative real-time PCR analysis was completed. […] RNA was dissolved in 100 μl of RNase-free water, and concentration was determined photometrically (absorbance at 260 nm) before storage at −80° C. […]
(§4) Real-time PCR was performed according to the manufacturer's protocol. […] Each sample was measured in triplicate wells and underwent 40 cycles of amplification on an ABI PRISM® Sequence Detection System (Applied Biosystems). CT values were determined with SDS Software 2.2 (Applied Biosystems) and relative quotients (RQ) were calculated following the ΔΔCT method (RQ target gene/GAPDH).
(§5) Statistics were calculated using Prism 4.05 (GraphPad Software Inc., CA, USA). All values are expressed as mean (M)±SEM. […]

[2] = system: TNF-α; assay: qRT-PCR of TNF-α mRNA in left ventricle after TAC/sham; conditions: Example 1, TAC, three days after surgery, M ± SEM
Protocol: as §1, §2, §3, §4, §5

[3] = system: IL-10; assay: qRT-PCR of IL-10 mRNA in left ventricle after TAC/sham; conditions: for IL-10 mRNA level: three days after surgery, qRT-PCR, M ± SEM
Protocol: as §1
The first injection was performed 5 min prior to TAC or sham-operation procedure (described below) and repeated 4, 8, 12, 24, 36, 48 and 60 hrs after surgery. Animals were randomly assigned into two groups, receiving either a tetrasodium salt of the compound of formula 1 (hereinafter “Eritoran tetrasodium”) or placebo. The catheter was flushed with 50 μl 0.9% NaCl before and 100 μl after each injection of 50 μl Eritoran tetrasodium (2.5 mg/ml vehicle; 5 mg/kg bodyweight/application; dosage adopted from Shimamoto et al., Circulation 2006, 114: 1270-1274) or placebo solution.
Treatment groups were separated into two subgroups, undergoing transverse aortic constriction (TAC) or sham operation. Surgery for TAC was achieved as published previously (see, e.g., Baumgarten et al., Circulation 2002, 105: 2192-2197 and Baumgarten et al., Basic Res Cardiol 2006, 101: 427-435). Mice were intubated in a supine position and mechanical ventilation was initiated (MiniVent 845, Hugo Sachs Elektronik, Germany). A left parasternal incision was performed. A suture was passed underneath the aorta and tied down on a 27 Gauge needle, which was immediately removed and allowed to achieve a standardised and previously validated decreased diameter of the aorta. For sham operation the suture was passed underneath the aorta without ligation. […]
as §3, §4
Statistics were calculated using Prism 4.05 (GraphPad Software Inc., CA, USA). All values are expressed as mean (M)±SEM. One-way ANOVA with Newman-Keuls post-hoc testing was performed for statistical analysis with the exception of TIMP and cytokine expression which were analysed with Kruskal-Wallis and Dunn's multiple comparison post-hoc testing Impact of TAC-Eritoran on IL-10 expression was analysed with Two-way ANOVA. […]

[4] = system: Tristetraprolin (TTP); assay: qRT-PCR of TTP mRNA in left ventricle after TAC/sham; conditions: Example 1, three days after surgery
Protocol: as §1, §2, §3, §4, §5

[5] = system: brain natriuretic peptide (BNP); assay: qRT-PCR of BNP mRNA in left ventricle after TAC/sham; conditions: Example 2; TAC treated vs TAC-placebo
Protocol: as §1, §2, §3, §4, §5

[6] = system: IL-1β; assay: qRT-PCR of IL-1β mRNA in left ventricle after TAC/sham; conditions: Example 2; TAC treated vs TAC-placebo
Protocol: as §1, §2, §3, §4, §5

Row | Structure (SMILES) | total MMP mRNA level (MMP-2+MMP-9) [1] | TNF mRNA level [2] | IL-10 mRNA level ([3]; Example 1, TAC) | elevation of IL-10 mRNA ([3]; Example 1, in sham and TAC groups, p<0.05, Two-way Anova) | IL-10 mRNA level ([3]; Example 1, sham operation) | TTP/TNFα ratio ([4]; TAC) | TTP/TNFα ratio ([4]; sham operation) | BNP mRNA expression [5] | IL-1β mRNA expression [6] | IL-10 mRNA expression ([3]; Example 2, TAC treated vs TAC-placebo)
1 | CCCCCC/C=C\CCCCCCCCCC(=O)N[C@H]1[C@H](OC[C@H]2O[C@H](OP(=O)([O-])[O-])[C@H](NC(=O)CC(=O)CCCCCCCCCCC)[C@@H](OCCCCCCCCCC)[C@@H]2O)O[C@H](COC)[C@@H](OP(=O)([O-])[O-])[C@@H]1OCC[C@@H](CCCCCCC)OC.[Na+].[Na+].[Na+].[Na+] [Eritoran tetrasodium] | remained unchanged by aortic banding | 1.32±0.19 | 4.71 ± 1.22 b | three to four fold elevation | 3.81 ± 1.69 b | 0.61±0.33 | 1.40±0.33 | – | – | –
2 | CCCCCC/C=C\CCCCCCCCCC(=O)N[C@H]1[C@H](OC[C@H]2O[C@H](OP(=O)(O)O)[C@H](NC(=O)CC(=O)CCCCCCCCCCC)[C@@H](OCCCCCCCCCC)[C@@H]2O)O[C@H](COC)[C@@H](OP(=O)(O)O)[C@@H]1OCC[C@@H](CCCCCCC)OC [compound of formula (I), α-D-Glucopyranose, 3-O-decyl-2-deoxy-6-O-[2-deoxy-3-O-[(3R)-3-methoxydecyl)-6-O-methyl-2-[[(−11Z)-1-oxo-11-octadecenyl)amino]-4-O-phosphono-β-D-glucopyranosyl]-2-[(1,3-dioxotetradecyl)amino]-1-(dihydrogen phosphate)] | – | – | – | – | – | – | – | elevated in TAC-placebo mice compared to sham and the TAC groups treated | lower | increased

Source: patent US20110201569A1, “Methods For Treating Myocardial Disorders” (priority 2009, published 2011)
